Reference: patent US11524945B2, “Compounds for treating ILK-mediated diseases” (The Cleveland Clinic Foundation, priority 2018, dated 2022)
Values after ≈ are worked out from the molar mass of the structure shown. Read-outs that look alike come from different tables or passages of the source.

How the values were obtained:
CYP 2B6 = CYP 2B6 (Homo sapiens (Human), UniProt P20813); test: CYP inhibition in human liver microsomes, 2B6; type: in vitro ADME
HepG2 cells = test: Mitochondrial toxicity in HepG2 cells; type: cell-based; conditions: for IC50: Homo sapiens, HepG2 cells
kinases = test: proteomic off target analysis vs known kinase inhibitors; conditions: FIG. 3, against FDA-approved kinase inhibitors
Text: Higher selectivity score means stronger off target effects.
To elucidate definitively how Csbl-1 specifically binds to ILK, we determined the crystal structure of Csbl-1/ILK complex. […] Thus our structure provides a hypothetical atomic basis for understanding why Csbl-1 binds selectively to ILK but unfavorably to EGFR (Table 1).

[1] = Log D in 1-Octanol/PBS pH 7.4; type: physicochemical
[2] = Permeability in Caco2 cell line; type: in vitro ADME; conditions: human
CYP 2D6 = CYP 2D6 (Homo sapiens (Human), UniProt P10635); test: biochemical; type: in vitro ADME; conditions: Human Liver Microsomes
CYP 2C9 = CYP 2C9 (Homo sapiens (Human), UniProt P11712); test: CYP inhibition in human liver microsomes, 2C9; type: in vitro ADME
[3] = Metabolic stability in rat liver microsomes; type: in vitro ADME; conditions: for Remaining Percentage (%): Rat
[4] = Oral toxicity in normal mice; type: in vivo; conditions: 25 to 510 mg/kg every day for two weeks, CMC/TWEEN 80
[5] = Protein binding in rat plasma; type: in vitro ADME
[6] = Solubility in PBS at pH 7.4; type: physicochemical; conditions: aqueous buffer
CYP 3A4-M = CYP 3A4-M (Homo sapiens (Human), UniProt P08684); test: CYP inhibition in human liver microsomes, 3A4-M; type: in vitro ADME
[7] = tested on: Xenograft TNBC tumors (MDA-MB231); test: TNBC xenograft model (MDA-MB231); type: in vivo, mice; conditions: 100 mg/kg five times/week
Protocol: The next step was to evaluate the effect of Csbl-1 in mice bearing TNBC tumors. Given the fact that higher ILK expression level is correlated with poor outcome and reduced survival for TNBC patients (FIG. 6) and the above TNBC cell-based data, we decided to test whether Csbl-1 would be effective in suppressing the TNBC tumors in mice. […] Xenograft TNBC tumors were generated using MDA-MB231 on 8 mice. […] when the tumors were ˜3 mm, 4 mice were fed with Csbl-1 at 100 mg/kg five times/week and the other 4 mice (control, no drug) had no Csbl-1 treatment. […] We also examined the Csbl-1 effect on the mouse models with human derived patient TNBC tumor (PDX).

CYP 2E1 = CYP 2E1 (Homo sapiens (Human), UniProt P05181); test: CYP inhibition in human liver microsomes, 2E1; type: in vitro ADME
CYP 2C8 = CYP 2C8 (Homo sapiens (Human), UniProt P10632); test: CYP inhibition in human liver microsomes, 2C8; type: in vitro ADME
Chain of CYP 2C8 (P10632 whole entry): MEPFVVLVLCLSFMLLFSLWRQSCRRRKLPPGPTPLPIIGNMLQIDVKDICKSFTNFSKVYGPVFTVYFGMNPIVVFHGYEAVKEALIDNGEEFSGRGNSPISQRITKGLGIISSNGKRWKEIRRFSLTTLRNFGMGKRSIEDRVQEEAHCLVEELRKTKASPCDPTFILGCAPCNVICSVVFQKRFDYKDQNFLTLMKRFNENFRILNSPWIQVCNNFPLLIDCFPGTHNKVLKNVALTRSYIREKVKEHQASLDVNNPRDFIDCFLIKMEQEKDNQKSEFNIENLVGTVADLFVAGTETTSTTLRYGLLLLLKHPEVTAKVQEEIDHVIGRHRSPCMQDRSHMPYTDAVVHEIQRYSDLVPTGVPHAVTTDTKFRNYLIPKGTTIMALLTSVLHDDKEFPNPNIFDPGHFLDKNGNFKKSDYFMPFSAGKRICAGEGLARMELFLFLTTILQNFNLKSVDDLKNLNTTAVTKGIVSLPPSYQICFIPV

Chain of CYP 3A4-M (P08684 whole entry): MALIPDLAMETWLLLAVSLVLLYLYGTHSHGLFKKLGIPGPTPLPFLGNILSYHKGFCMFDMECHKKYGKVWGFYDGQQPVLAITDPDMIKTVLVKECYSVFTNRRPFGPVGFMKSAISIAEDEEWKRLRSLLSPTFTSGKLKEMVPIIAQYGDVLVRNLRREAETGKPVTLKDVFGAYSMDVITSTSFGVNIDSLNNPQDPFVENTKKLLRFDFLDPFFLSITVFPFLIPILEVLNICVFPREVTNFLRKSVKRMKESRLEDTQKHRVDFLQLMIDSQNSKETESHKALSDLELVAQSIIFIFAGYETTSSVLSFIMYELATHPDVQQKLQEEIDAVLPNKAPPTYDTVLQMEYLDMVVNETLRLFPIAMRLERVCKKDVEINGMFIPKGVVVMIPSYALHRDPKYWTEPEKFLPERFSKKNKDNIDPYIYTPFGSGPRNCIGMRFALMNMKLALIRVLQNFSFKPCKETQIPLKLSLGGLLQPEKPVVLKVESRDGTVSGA
Chain of CYP 2D6 (P10635 whole entry): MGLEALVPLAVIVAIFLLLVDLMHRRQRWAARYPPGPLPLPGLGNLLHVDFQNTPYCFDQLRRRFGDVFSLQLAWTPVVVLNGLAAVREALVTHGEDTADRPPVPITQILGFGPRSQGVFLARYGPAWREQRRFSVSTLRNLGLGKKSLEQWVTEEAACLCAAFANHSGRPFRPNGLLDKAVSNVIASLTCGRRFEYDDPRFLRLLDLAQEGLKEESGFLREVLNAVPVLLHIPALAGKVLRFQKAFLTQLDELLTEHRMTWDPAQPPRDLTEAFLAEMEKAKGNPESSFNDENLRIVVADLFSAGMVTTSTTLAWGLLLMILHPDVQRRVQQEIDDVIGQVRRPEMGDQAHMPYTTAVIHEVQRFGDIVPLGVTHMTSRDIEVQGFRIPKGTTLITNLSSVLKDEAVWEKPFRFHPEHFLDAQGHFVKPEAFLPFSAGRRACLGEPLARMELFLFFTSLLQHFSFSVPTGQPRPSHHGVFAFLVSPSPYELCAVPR
Chain of CYP 2E1 (P05181 whole entry): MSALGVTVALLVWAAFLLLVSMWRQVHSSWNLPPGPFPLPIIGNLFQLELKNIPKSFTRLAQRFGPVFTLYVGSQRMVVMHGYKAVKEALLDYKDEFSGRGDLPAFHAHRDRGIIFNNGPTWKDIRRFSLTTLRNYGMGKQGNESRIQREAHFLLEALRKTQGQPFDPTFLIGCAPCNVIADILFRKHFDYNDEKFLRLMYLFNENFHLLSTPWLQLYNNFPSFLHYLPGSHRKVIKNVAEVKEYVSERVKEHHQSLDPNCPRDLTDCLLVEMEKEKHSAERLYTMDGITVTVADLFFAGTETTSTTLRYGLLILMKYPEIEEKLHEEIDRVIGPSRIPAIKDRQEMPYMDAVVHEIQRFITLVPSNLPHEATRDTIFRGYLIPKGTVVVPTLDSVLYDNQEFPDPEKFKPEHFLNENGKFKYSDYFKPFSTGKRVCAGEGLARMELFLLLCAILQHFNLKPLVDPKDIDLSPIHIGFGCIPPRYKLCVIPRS
Chain of CYP 2B6 (P20813 whole entry): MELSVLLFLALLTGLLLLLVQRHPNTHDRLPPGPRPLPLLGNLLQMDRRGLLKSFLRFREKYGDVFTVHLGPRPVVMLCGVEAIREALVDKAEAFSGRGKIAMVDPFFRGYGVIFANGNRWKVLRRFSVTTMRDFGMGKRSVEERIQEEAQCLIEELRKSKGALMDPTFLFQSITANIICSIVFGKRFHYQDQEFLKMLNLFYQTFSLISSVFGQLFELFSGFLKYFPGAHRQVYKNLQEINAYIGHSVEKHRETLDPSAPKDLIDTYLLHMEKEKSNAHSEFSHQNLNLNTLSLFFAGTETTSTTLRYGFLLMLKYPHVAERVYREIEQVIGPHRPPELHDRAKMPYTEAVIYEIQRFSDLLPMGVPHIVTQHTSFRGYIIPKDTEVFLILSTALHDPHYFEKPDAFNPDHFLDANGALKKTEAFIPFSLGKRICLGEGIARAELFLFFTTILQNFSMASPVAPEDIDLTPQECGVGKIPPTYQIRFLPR
Chain of CYP 2C9 (P11712 whole entry): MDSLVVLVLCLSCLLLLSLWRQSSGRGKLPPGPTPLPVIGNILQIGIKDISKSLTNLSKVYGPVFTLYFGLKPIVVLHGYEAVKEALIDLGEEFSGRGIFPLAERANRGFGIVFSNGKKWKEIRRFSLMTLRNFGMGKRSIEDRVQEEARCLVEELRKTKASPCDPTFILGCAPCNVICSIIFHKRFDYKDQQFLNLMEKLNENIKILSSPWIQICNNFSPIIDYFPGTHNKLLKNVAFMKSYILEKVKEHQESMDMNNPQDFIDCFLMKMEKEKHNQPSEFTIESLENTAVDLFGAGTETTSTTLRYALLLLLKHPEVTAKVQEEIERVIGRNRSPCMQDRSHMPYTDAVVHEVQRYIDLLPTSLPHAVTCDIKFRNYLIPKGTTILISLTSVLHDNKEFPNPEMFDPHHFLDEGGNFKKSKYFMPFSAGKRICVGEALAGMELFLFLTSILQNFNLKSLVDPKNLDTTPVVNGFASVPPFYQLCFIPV

SMILES: C#Cc1cc(Nc2ncnc3cc(OCCOC)ccc23)cc(OCCOCC)c1 [Compound 1]
- IC50 (CYP 2B6): > 50 µM
- IC50 (HepG2 cells; Galactose, read-out: IC50 (μM)_Galactose): > 150 µM
- IC50 (HepG2 cells; Glucose, read-out: IC50 (μM)_Glucose): > 150 µM
- Compound precipitation (HepG2 cells; at 50 and 150 μM in mitochondrial toxicity assay): * Compound precipitation observed for Compound 1 at 50 and 150 μM.
- off-target effect to kinases (kinases): minimal off-target effect
- logD [1]: 3.61
- recovery ([2]; Caco-2, Caco2, AP-BL, read-out: Recovery (%)AP-BL): 51%
- recovery ([2]; Caco-2, Caco2, BL-AP, read-out: Recovery (%)BL-AP): 53.5%
- efflux ratio ([2]; Caco-2, Caco2): 0.48
- Papp A→B ([2]; Caco-2, Caco2, A-B): 15.4 ×10⁻⁶ cm/s
- Papp B→A ([2]; Caco-2, Caco2, B-A): 7.31 ×10⁻⁶ cm/s
- IC50 (CYP 2D6): 27.6 µM
- IC50 (CYP 2C9): 13.8 µM
- half-life ([3]; Rat liver microsomes): 16 min
- microsomal CLint ([3]; Rat liver microsomes, read-out: CLint (μL/min/mg protein)): 86.6 µL/min/mg
- CLint scaled ([3]; Rat liver microsomes, read-out: Scaled-up CLint): 155 mL/min/kg
- Remaining Percentage (%) ([3]; With NADPH, 0 min): 100.00%
- Remaining Percentage (%) ([3]; With NADPH, 15 min): 45.00%
- Remaining Percentage (%) ([3]; With NADPH, 30 min): 21.08%
- Remaining Percentage (%) ([3]; With NADPH, 45 min): 11.69%
- Remaining Percentage (%) ([3]; With NADPH, 60 min): 7.65%
- Remaining Percentage (%) ([3]; Without NADPH, 0 min): 100.00%
- Remaining Percentage (%) ([3]; Without NADPH, 15 min): 95.03%
- Remaining Percentage (%) ([3]; Without NADPH, 30 min): 90.68%
- Remaining Percentage (%) ([3]; Without NADPH, 45 min): 91.30%
- Remaining Percentage (%) ([3]; Without NADPH, 60 min): 102.48%
- toxic symptoms in normal mice [4]: no toxic symptoms
- recovery [5]: 93.4%
- fraction unbound ([5]; read-out: % Bound (converted)): 0.0083
- solubility [6]: 7.96 µM (≈ 3.24 µg/mL)
- IC50 (CYP 3A4-M): 43.8 µM
- weight difference vs control mice [7]: no significant weight difference
- IC50 (CYP 2E1): > 50 µM
- IC50 (CYP 2C8): 3.24 µM
